Legend:
[1] = test system: white shrimp L. vannamei; settings: in vivo
[2] = commercial diet supplemented 5 mg/g, fed ad libitum up to 28 days
[3] = test system: White Spot Syndrome Virus (WSSV); assay: Challenge of shrimp L. vannamei with White Spot Syndrome Virus, survival; format: in vivo; settings: for survival rate: positive control 10%
Procedure: The virus is isolated from WSSV-infected adult L. vannamei shrimp obtained from commercial farms located in Sinaloa, Mexico in 2013. Virus stocks were purified from infected shrimp homogenates by improved differential centrifugation as described previously by Du et al, (Du, H. H., Fu, L. L., Xu, Y. X., Kil, Z. S., Xu. Z. R. 2007. Aquaculture, 262:532-534) and then stored at −80° C. For assays, the WSSV stock is serially diluted to prepare solutions containing various target copy numbers determined by competitive PCR.
A volume of 20 μL of different dilutions of the tissue homogenate (containing WSSV in 330 mM of NaCl) is injected intramuscularly in fourth or fifth abdominal segment of L. vannamei using an insulin needle. The mortality is recorded twice a day and dead shrimp are tested by PCR to highlight the presence of WSSV.
There are two control groups: • 1.
The shrimp mortality percentage is recorded daily.
Dead shrimp are recorded daily during 120 hours.

In the case of C[N+](C)(C)CCOB1OB2OB(O1)OB1OB(O2)O1.[Cl-] [choline/pentaborate complex], the “toxicity (summary statement)” value [1] is reported as “not toxic”, the “increment in mean weight compared with control group” value [2] is reported as 20% and the “impact of WSSV infection (summary statement)” value ([3]; 5 mg/g in feed diets, standardized injection protocols) is reported as “effective in reducing impact of WSSV infection”. For the same compound, the survival ([3]; 1% WSSV suspension, 96 h post-challenge, 5 mg/g feed, positive control about 35%, p<0.05) was 85%, the survival ([3]; 1% WSSV suspension, after 72 h, 5 mg/g feed, positive control about 65%) was 95% and the survival rate ([3]; 3% WSSV suspension, 96 h post-challenge, 1 mg/g feed) was ~40%. For the same compound, the survival rate ([3]; 3% WSSV suspension, 96 h post-challenge, 5 mg/g feed) was ~40% and the survival ([3]; 3% WSSV suspension, after 48 hours, 5 mg/g feed, positive control about 80%) was 95%.
